Measurements taken from PubChem BioAssay AID2060884 (Molecular Pharmacology Branch, DTP, NCI, 2025).
Values joined by “and” are separate entries in the source; they are usually repeats but may differ in a detail not shown here. Identical values can stand only once. Blank lines part the entries; values can stand above or below the compound they belong to.

Tested on: NCI-H929 complex spheroids, viability % test/control
Assay: Anticancer human tumor NCI-H929 cell line growth inhibition [RAS];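 also: compound exposure lasted seven days before viability was read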;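 as to viability, T/C: 100% = DMSO vehicle control viability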
Settings: for viability, T/C: stronger effect = lower value
How it was run: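 Agents were tested in combination matrices in half-log decrements from a top concentration at or near clinical Cmax (10 microM if undetermined). Targets were multi-cell spheroids of tumour lines plus HUVEC and MSC stromal cells.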

[1] = curve of first compound, second compound 0.000949 µM
[2] = curve of first compound, second compound 0.003 µM
[3] = curve of first compound, second compound 0.00949 µM
[4] = curve of first compound, second compound 0.03 µM
[5] = curve of first compound, second compound 0.0949 µM
[6] = curve of first compound, second compound 0.3 µM
[7] = second compound 0.000949 µM, first compound 0.0316 µM
[8] = second compound 0.000949 µM, first compound 0.1 µM
[9] = second compound 0.000949 µM, first compound 0.316 µM
[10] = second compound 0.000949 µM, first compound 1 µM
[11] = second compound 0.000949 µM, first compound 3.16 µM
[12] = second compound 0.000949 µM, first compound 10 µM
[13] = second compound 0.003 µM, first compound 0.0316 µM
[14] = second compound 0.003 µM, first compound 0.1 µM
[15] = second compound 0.003 µM, first compound 0.316 µM
[16] = second compound 0.003 µM, first compound 1 µM
[17] = second compound 0.003 µM, first compound 3.16 µM
[18] = second compound 0.003 µM, first compound 10 µM
[19] = second compound 0.00949 µM, first compound 0.0316 µM
[20] = second compound 0.00949 µM, first compound 0.1 µM
[21] = second compound 0.00949 µM, first compound 0.316 µM
[22] = second compound 0.00949 µM, first compound 1 µM
[23] = second compound 0.00949 µM, first compound 3.16 µM
[24] = second compound 0.00949 µM, first compound 10 µM
[25] = second compound 0.03 µM, first compound 0.0316 µM
[26] = second compound 0.03 µM, first compound 0.1 µM
[27] = second compound 0.03 µM, first compound 0.316 µM
[28] = second compound 0.03 µM, first compound 1 µM
[29] = second compound 0.03 µM, first compound 3.16 µM
[30] = second compound 0.03 µM, first compound 10 µM
[31] = second compound 0.0949 µM, first compound 0.0316 µM
[32] = second compound 0.0949 µM, first compound 0.1 µM
[33] = second compound 0.0949 µM, first compound 0.316 µM
[34] = second compound 0.0949 µM, first compound 1 µM
[35] = second compound 0.0949 µM, first compound 3.16 µM
[36] = second compound 0.0949 µM, first compound 10 µM
[37] = second compound 0.3 µM, first compound 0.0316 µM
[38] = second compound 0.3 µM, first compound 0.1 µM
[39] = second compound 0.3 µM, first compound 0.316 µM
[40] = second compound 0.3 µM, first compound 1 µM
[41] = second compound 0.3 µM, first compound 3.16 µM
[42] = second compound 0.3 µM, first compound 10 µM

IC50 [1]: > 10000 nM
IC50 [2]: > 10000 nM
IC50 [3]: > 10000 nM
IC50 [4]: > 10000 nM
IC50 [5]: < 31.6 nM
IC50 [6]: < 31.6 nM
Structure (SMILES): C[C@@H](NC(=O)c1ncnc(N)c1Cl)c1ncc(C(=O)Nc2cc(C(F)(F)F)c(Cl)cn2)s1 + CCn1c(-c2cc(N3CCN(C)CC3)cnc2C(C)OC)c2c3cc(ccc31)-c1csc(n1)CC(NC(=O)C1CC1C)C(=O)N1CCCC(N1)C(=O)OCC(C)(C)C2
viability, T/C [7]: 104%
viability, T/C [8]: 100%
viability, T/C [9]: 102%
viability, T/C [10]: 98.9%
viability, T/C [11]: 104%
viability, T/C [12]: 112%
viability, T/C [13]: 95.8%
viability, T/C [14]: 99.7%
viability, T/C [15]: 103%
viability, T/C [16]: 101%
viability, T/C [17]: 105%
viability, T/C [18]: 114%
viability, T/C [19]: 91.8%
viability, T/C [20]: 104%
viability, T/C [21]: 107%
viability, T/C [22]: 111%
viability, T/C [23]: 111%
viability, T/C [24]: 115%
viability, T/C [25]: 114%
viability, T/C [26]: 121%
viability, T/C [27]: 120%
viability, T/C [28]: 119%
viability, T/C [29]: 115%
viability, T/C [30]: 89.2%
viability, T/C [31]: 19.9%
viability, T/C [32]: 28.3%
viability, T/C [33]: 35.9%
viability, T/C [34]: 43.4%
viability, T/C [35]: 45.6%
viability, T/C [36]: 18.5%
viability, T/C [37]: 6.79%
viability, T/C [38]: 9.47%
viability, T/C [39]: 9.99%
viability, T/C [40]: 13.3%
viability, T/C [41]: 14.1%
viability, T/C [42]: 8.3%

IC50 [1]: 7.3 nM
IC50 [2]: 6.69 nM
IC50 [3]: 6.61 nM
IC50 [4]: < 3.16 nM
IC50 [5]: < 3.16 nM
IC50 [6]: < 3.16 nM
Structure (SMILES): Nc1ccn(C2OC(CO)C(O)C2(F)F)c(=O)n1 (stereo unspecified) + CCn1c(-c2cc(N3CCN(C)CC3)cnc2C(C)OC)c2c3cc(ccc31)-c1csc(n1)CC(NC(=O)C1CC1C)C(=O)N1CCCC(N1)C(=O)OCC(C)(C)C2
viability, T/C (second compound 0.000949 µM, first compound 0.00316 µM): 110%
viability, T/C (second compound 0.000949 µM, first compound 0.01 µM): 27.6%
viability, T/C [7]: 2.05%
viability, T/C [8]: 2.16%
viability, T/C [9]: 1.6%
viability, T/C [10]: 1.6%
viability, T/C (second compound 0.003 µM, first compound 0.00316 µM): 105%
viability, T/C (second compound 0.003 µM, first compound 0.01 µM): 20.4%
viability, T/C [13]: 2.07%
viability, T/C [14]: 1.75%
viability, T/C [15]: 1.35%
viability, T/C [16]: 1.62%
viability, T/C (second compound 0.00949 µM, first compound 0.00316 µM): 127%
viability, T/C (second compound 0.00949 µM, first compound 0.01 µM): 6.62%
viability, T/C [19]: 1.99%
viability, T/C [20]: 2.73%
viability, T/C [21]: 1.58%
viability, T/C [22]: 1.35%
viability, T/C (second compound 0.03 µM, first compound 0.00316 µM): 15.2%
viability, T/C (second compound 0.03 µM, first compound 0.01 µM): 3.12%
viability, T/C [25]: 1.8%
viability, T/C [26]: 1.5%
viability, T/C [27]: 1.42%
viability, T/C [28]: 1.24%
viability, T/C (second compound 0.0949 µM, first compound 0.00316 µM): 2.68%
viability, T/C (second compound 0.0949 µM, first compound 0.01 µM): 1.67%
viability, T/C [31]: 1.66%
viability, T/C [32]: 1.4%
viability, T/C [33]: 1.18%
viability, T/C [34]: 1.05%
viability, T/C (second compound 0.3 µM, first compound 0.00316 µM): 1.41%
viability, T/C (second compound 0.3 µM, first compound 0.01 µM): 1.1%
viability, T/C [37]: 1.1%
viability, T/C [38]: 1.32%
viability, T/C [39]: 1.02%
viability, T/C [40]: 0.86%

IC50 (compound alone, run of 08/26/2024): 31.5 nM [middle of 8 runs]
Structure (SMILES): CCn1c(-c2cc(N3CCN(C)CC3)cnc2C(C)OC)c2c3cc(ccc31)-c1csc(n1)CC(NC(=O)C1CC1C)C(=O)N1CCCC(N1)C(=O)OCC(C)(C)C2 (stereo unspecified)
viability, T/C (compound 0.000949 µM): 102% [middle of 8 runs]
viability, T/C (compound 0.003 µM): 101% [middle of 8 runs]
viability, T/C (compound 0.00949 µM): 116% [middle of 8 runs]
viability, T/C (compound 0.0949 µM): 5.7% [middle of 8 runs]
viability, T/C (compound 0.3 µM): 3.64% [middle of 8 runs]

IC50 [1]: > 10000 nM
IC50 [2]: > 10000 nM
IC50 [3]: > 10000 nM
IC50 [4]: > 10000 nM
IC50 [5]: 9050 nM
IC50 [6]: 8980 nM
Structure (SMILES): NC1c2ccccc2OC12CCN(c1cnc3c(N4CCCc5ncccc54)n[nH]c3n1)CC2 (stereo unspecified) + CCn1c(-c2cccnc2C(C)OC)c2c3cc(ccc31)N1CCOC(CC(NC(=O)C(C(C)C)N(C)C(=O)C3(F)CCN(C(=O)C#CC(C)(C)N(C)C)CC3)C(=O)N3CCCC(N3)C(=O)OCC(C)(C)C2)C1
viability, T/C [7]: 103%
viability, T/C [8]: 100%
viability, T/C [9]: 103%
viability, T/C [10]: 98.5%
viability, T/C [11]: 94.5%
viability, T/C [12]: 60.7%
viability, T/C [13]: 103%
viability, T/C [14]: 96.5%
viability, T/C [15]: 102%
viability, T/C [16]: 97.7%
viability, T/C [17]: 95.7%
viability, T/C [18]: 58.5%
viability, T/C [19]: 101%
viability, T/C [20]: 99.6%
viability, T/C [21]: 101%
viability, T/C [22]: 96.8%
viability, T/C [23]: 93.2%
viability, T/C [24]: 54.1%
viability, T/C [25]: 97.7%
viability, T/C [26]: 96.9%
viability, T/C [27]: 99.8%
viability, T/C [28]: 99.7%
viability, T/C [29]: 90.9%
viability, T/C [30]: 54.2%
viability, T/C [31]: 99.1%
viability, T/C [32]: 98.2%
viability, T/C [33]: 93.6%
viability, T/C [34]: 91.2%
viability, T/C [35]: 86.5%
viability, T/C [36]: 46.3%
viability, T/C [37]: 95.7%
viability, T/C [38]: 99.6%
viability, T/C [39]: 99.5%
viability, T/C [40]: 93.2%
viability, T/C [41]: 76.8%
viability, T/C [42]: 47.2%

IC50 (curve of compound): 3.45 µM [middle of 4 runs]
Structure (SMILES): CC(C)NCC(C(=O)N1CCN(c2ncnc3c2C(C)CC3O)CC1)c1ccc(Cl)cc1 (stereo unspecified)
viability, T/C (compound 0.0316 µM): 106% [middle of 4 runs]
viability, T/C (compound 0.1 µM): 102% [middle of 4 runs]
viability, T/C (compound 0.316 µM): 108% (2×) and 99.3% and 103%
viability, T/C (compound 1 µM): 104% (2×) and 62.6% and 71.6%
viability, T/C (compound 10 µM): 12.8% [middle of 4 runs]

IC50 (curve of compound): 189 nM [middle of 4 runs]
Structure (SMILES): CC1(O)CCCC1n1c(=O)c(C(F)F)cc2cnc(NC3CCN(S(C)(=O)=O)CC3)nc21 (stereo unspecified)
viability, T/C (compound 0.0316 µM): 116% and 105% and 113% (2×)
viability, T/C (compound 0.316 µM): 4.47% [middle of 4 runs]
viability, T/C (compound 1 µM): 9.4% [middle of 4 runs]
viability, T/C (compound 3.16 µM): 2.17% [middle of 4 runs]
viability, T/C (compound 10 µM): 0.2% and 0.16% and 0.08%

IC50 [1]: 1720 nM
IC50 [2]: 1690 nM
IC50 [3]: 652 nM
IC50 [4]: < 31.6 nM
IC50 [5]: < 31.6 nM
IC50 [6]: < 31.6 nM
Structure (SMILES): CC(C)NCC(C(=O)N1CCN(c2ncnc3c2C(C)CC3O)CC1)c1ccc(Cl)cc1 (stereo unspecified) + CCn1c(-c2cc(N3CCN(C)CC3)cnc2C(C)OC)c2c3cc(ccc31)-c1csc(n1)CC(NC(=O)C1CC1C)C(=O)N1CCCC(N1)C(=O)OCC(C)(C)C2
viability, T/C [7]: 102%
viability, T/C [8]: 97.5%
viability, T/C [9]: 105%
viability, T/C [10]: 80.3%
viability, T/C [11]: 16%
viability, T/C [12]: 2.39%
viability, T/C [13]: 97.7%
viability, T/C [14]: 102%
viability, T/C [15]: 106%
viability, T/C [16]: 82.3%
viability, T/C [17]: 11.1%
viability, T/C [18]: 1.27%
viability, T/C [19]: 109%
viability, T/C [20]: 115%
viability, T/C [21]: 109%
viability, T/C [22]: 15.4%
viability, T/C [23]: 1.11%
viability, T/C [24]: 0.51%
viability, T/C [25]: 42.5%
viability, T/C [26]: 23.2%
viability, T/C [27]: 5.92%
viability, T/C [28]: 1.07%
viability, T/C [29]: 0.47%
viability, T/C [30]: 0.39%
viability, T/C [31]: 5.19%
viability, T/C [32]: 2.73%
viability, T/C [33]: 0.72%
viability, T/C [34]: 0.7%
viability, T/C [35]: 0.37%
viability, T/C [36]: 0.17%
viability, T/C [37]: 2.88%
viability, T/C [38]: 1.14%
viability, T/C [39]: 0.58%
viability, T/C [40]: 0.57%
viability, T/C [41]: 0.75%
viability, T/C [42]: 0.24%
